Measurements taken from patent publication US11731946B2, “Broad spectrum antivirulence, anti-persistence compounds” (priority 2017, dated 2023).

Tests used:
MvfR regulon [1] = assay: Quantification of pyocyanin (OD520nm of chloroform-extracted cultures); type: cell-based, P. aeruginosa; details: for activity at 50 µM / activity at 1 µM / activity at 10 µM / IC50: Pseudomonas aeruginosa; for activity at 50 µM: read-out: pyocyanin @50 uM (%), compound at 50 uM; for activity at 1 µM: read-out: pyocyanin @1 uM (%), compound at 1 uM; for activity at 10 µM: read-out: pyocyanin @10 uM (%), compound at 10 uM; for IC50: read-out: IC50 pyocyanin (μM)
MvfR regulon [2] = assay: pqsA gene expression (pqsA-GFP reporter); type: cell-based, P. aeruginosa; details: for activity at 50 µM / activity at 10 µM: Pseudomonas aeruginosa; for activity at 50 µM: read-out: pqsA @50 uM (%), compound at 50 uM; for activity at 10 µM: read-out: pqsA @10 uM (%), compound at 10 uM
Procedure: Experiments were performed to identify compounds that inhibit the MvfR regulon without altering growth, ultimately attenuating P. aeruginosa infection. MvfR is a LysR-type transcriptional regulator that directs HAQs synthesis, including that of its ligands, 4-hydroxy-2-heptylquinoline (HHQ) and 3,4-dihydroxy-2-heptylquinoline (PQS).
MvfR promotes the production of HAQs by binding to and activating the pqs operon, which encodes enzymes for HAQ synthesis. Anthranilic acid (AA), derived from the phnAB, kynABU, and trpEG pathways, is the precursor for HAQs. pqsA encodes an anthranilate-coenzyme A ligase, which activates anthranilic acid and catalyzes the first committed step to HAQ production. The exact roles of PqsB and PqsC are unknown, though both show homology to acyl-carrier-proteins and both are required for HHQ and PQS production. […] The final gene of the operon, pqsE encodes for a putative hydrolase, and while the protein is not required for the synthesis of HAQs, it is necessary for pyocyanin production.
Nanomolar levels of most of these MvfR antagonists impeded the activity of MvfR and in consequence the MvfR virulence regulated ACRP functions, including: (1) the production of the important pro-acute P. aeruginosa virulence factor pyocyanin (see e.g., FIG. 9A) the efficacy of two of these potent inhibitors, D57 and D88, was also confirmed by testing many different MDR P. aeruginosa clinical isolates (see e.g., FIG. 11A-11B), providing further confidence of their inhibitory potency; (2) the expression of the genes that encode the enzymes catalyzing the synthesis of both pro-acute and pro-persistence MvfR-regulated virulence molecules, 4-hydroxyl-2-alkyl-quinolines (HAQs) and 2-aminoacetophenon (2-AA), as assessed by pqsAGFP reporter gene expression (see e.g., FIG. 9B) and HAQ production showing the levels of MvfR inducers/ligands HHQ and PQS as well as of the molecules critical for biofilm and Antibiotic tolerant/persiters cells formation HQNO and 2-AA (see e.g., FIG. 9C); (3) AT/P cell formation (see e.g., FIGS. 11A, 12A); (4) biofilm formation (see e.g., FIG. 12B); and (5) biofilm dispersal of preformed biofilm by potentiating antibiotic action (see e.g., FIG. 11B).

[3] = compound at 50 uM, listed as D92

Structure (SMILES) | activity at 50 µM (MvfR regulon [1]) | activity at 50 µM (MvfR regulon [2]) | activity at 1 µM (MvfR regulon [1]) | activity at 10 µM (MvfR regulon [1]) | activity at 10 µM (MvfR regulon [2]) | pyocyanin @50 uM (%) (MvfR regulon [1]; [3]) | pqsA @50 uM (%) (MvfR regulon [2]; [3]) | IC50 (MvfR regulon [1])
Cc1ccc(F)cc1NCC(=O)Nc1ccc(C#N)cc1 [Compound 30] | 68.5% | 28.1% |  |  |  |  |  | 
N#Cc1ccc(NC(=O)CNc2cccc(F)c2)cc1 [Compound 18] | 91.3% | 68% |  |  |  |  |  | 
Cc1ccc(NCC(=O)Nc2ccc(C#N)cc2)cc1F [Compound 40] | 59.5% | 42% |  |  |  |  |  | 
N#Cc1ccc(NC(=O)C2CCN(c3ccc(F)cc3)C2=O)cc1 (stereo not drawn) [Compound 94] | 95.2% |  | 94.6% | 94% | 109% |  |  | 
N#Cc1ccc(NC(=O)CC(=O)Nc2ccc(Oc3ccccc3)cc2)c(N)c1 [Compound 107] |  |  | 75% | 12.1% | 2.1% | 3.51% | 1.40% | 
O=C(CC(=O)Nc1ccc(Oc2ccccc2)cc1)Nc1ccc(Br)cc1 [Compound 79] | 47.7% | 60.5% |  |  | 64.5% |  |  | 
N#Cc1ccc(NC(=O)CNc2ccccc2F)cc1 [Compound 37] | 97.3% | 84% |  |  |  |  |  | 
COc1cccc(NC(=O)CNc2ccc(F)cc2C)c1 [Compound 44] | 92.2% | 93.7% |  |  |  |  |  | 
Cc1cc(F)ccc1NCC(=O)NC1CC1 [Compound 35] | 107% | 92.5% |  |  |  |  |  | 
N#Cc1ccc(NC(=O)CC(=O)Nc2ccc(C#N)nc2)cn1 [Compound 106] | 43.1% | 38.9% | 90% | 75.6% | 80% |  |  | 
Cc1ccc(NCC(=O)N(C)c2ccccc2)c(C)c1 [Compound 32] | 111% | 88% |  |  |  |  |  | 
CC(C(=O)Nc1ccc(C#N)cc1)C(=O)Nc1ccc(C#N)cc1 [Compound 95] | 7% |  | 93.5% | 23.9% | 45.7% |  |  | 1.35 µM
Cc1cc(F)ccc1NCC(=O)Nc1ccc(Br)cc1C [Compound 19] | 88.7% | 70% |  |  |  |  |  | 
CC(C)c1ccc(NCC(=O)Nc2ccc(C#N)cc2)cc1 [Compound 45] | 59.1% | 52.8% |  |  |  |  |  | 
N#Cc1ccc(NC(=O)CS(=O)(=O)Nc2ccc(C#N)cc2)cc1 [Compound 96] | 111% |  | 97.3% | 109% | 118% |  |  | 
O=C(CC(=O)Nc1ccc(Oc2ccccc2)cc1)Nc1ccc(Cl)cc1 [Compound 82] | 26% |  | 40.3% | 39.9% | 28.8% |  |  | 0.09 µM
Cc1cc(F)ccc1NCC(=O)Nc1ccc(N2CCOCC2)cc1 [Compound 17] | 102% | 99.8% |  |  |  |  |  | 
